Key:
Kir4.1 = biological target: T1, Kir4.1 (Homo sapiens, UniProt P78508); assay: Tl+ flux selectivity assay, Kir4.1; format: cell-based; conditions: n = 2 independent experiments in triplicate, read-out: Inhibition of Tl+ flux (IC50)
T1 construct: expressed in transfected cells
T1 sequence (P78508 1-379): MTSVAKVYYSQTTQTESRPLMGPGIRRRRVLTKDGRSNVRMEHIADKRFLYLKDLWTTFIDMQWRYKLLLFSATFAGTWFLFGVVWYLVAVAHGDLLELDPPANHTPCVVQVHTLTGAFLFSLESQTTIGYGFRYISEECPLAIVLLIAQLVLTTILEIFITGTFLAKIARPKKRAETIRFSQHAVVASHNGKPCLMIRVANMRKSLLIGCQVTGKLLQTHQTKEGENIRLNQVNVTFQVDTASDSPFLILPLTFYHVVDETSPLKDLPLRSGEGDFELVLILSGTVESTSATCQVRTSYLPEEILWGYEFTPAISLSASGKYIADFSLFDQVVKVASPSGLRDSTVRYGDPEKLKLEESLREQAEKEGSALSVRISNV
Method: Tl^+ flux assays were performed essentially as described previously, [18], [19]. Briefly, stably transfected T-Rex-HEK-293 cells expressing AeKir1 channels were cultured overnight in 384-well plates (20,000 cells/20 µL/well black-walled, clear-bottomed BD PureCoat amine-coated plates (BD, Bedford, MA) with a plating media containing DMEM, 10% dialyzed FBS and 1 µg/mL tetracycline. The next day, the cell culture medium was replaced with a dye-loading solution containing assay buffer (Hanks Balanced Salt Solution with 20 mM HEPES, pH 7.3), 0.01% (w/v) Pluronic F-127 (Life Technologies, Carlsbad, CA), and 1.2 µM of the thallium-sensitive dye Thallos-AM (TEFlabs, Austin, TX). Following 1 hr incubation at room temperature, the dye-loading solution was washed from the plates and replaced with 20 µL/well of assay buffer. […] Tl^+ flux data were analyzed as previously described, [21], [22] using a combination of Excel (Microsoft Corp, Redmond, WA) with XLfit add-in (IDBS, Guildford, Surrey, UK) and OriginPro (OriginLab, Northampton, MA) software. […] The slope of the fluorescence increase beginning 5 s after Tl^+ addition and ending 15 s after Tl^+ addition was calculated.

Kir7.1(M125R) = biological target: T2, Kir7.1(M125R) (Homo sapiens, UniProt O60928, M125R); assay: Tl+ flux selectivity assay, Kir7.1(M125R); format: cell-based; conditions: n = 2 independent experiments in triplicate, read-out: Inhibition of Tl+ flux (IC50)
T2 construct: expressed in transfected cells
T2 sequence (O60928 1-360 M125R): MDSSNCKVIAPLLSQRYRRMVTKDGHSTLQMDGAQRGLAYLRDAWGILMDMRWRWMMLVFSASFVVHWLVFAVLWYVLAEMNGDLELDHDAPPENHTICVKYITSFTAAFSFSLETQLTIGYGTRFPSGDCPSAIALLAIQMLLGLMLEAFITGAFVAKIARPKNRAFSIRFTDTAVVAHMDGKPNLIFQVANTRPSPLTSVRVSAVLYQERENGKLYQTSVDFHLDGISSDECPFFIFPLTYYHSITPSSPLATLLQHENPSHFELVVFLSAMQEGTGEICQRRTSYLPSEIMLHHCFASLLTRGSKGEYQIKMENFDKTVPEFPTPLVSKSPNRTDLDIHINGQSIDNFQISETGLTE

[1] = test system: adult female mosquitoes (A. aegypti); assay: Mosquito toxicology experiments (hemolymph injection); format: in vivo, Aedes aegypti
Method: The Aedes aegypti mosquito colony used in the present study is identical to that described previously. As before, only adult female mosquitoes 3–10 days post emergence were utilized for experiments.
Adult female mosquitoes for injection were anesthetized on ice and impaled through the metapleuron using a pulled-glass capillary attached to a nanoliter injector (Nanoject II, Drummond Scientific Company, Broomall, PA). Each mosquito received a single hemolymph injection of 69 nL of solution. The injection solution consisted of a potassium-rich phosphate buffered saline (K^+-PBS), 15% DMSO, 1% β-cyclodextrin, 0.1% Solutol, and a concentration of VU625 to deliver the doses indicated. In experiments where probenecid was used, water-soluble probenecid (Biotium, Hayward CA) was included in the injection solution at 50 mM, thereby providing a dose of 3.4 nmol per mosquito.
The K^+-PBS solution consisted of the following in mM: 92.2 NaCl, 47.5 KCl, 10 Na2HPO4, and 2 KH2PO4 (pH 7.5). A total of 10 mosquitoes were injected for a given treatment or dose, and then were placed into small cages within a rearing chamber (28°C, 80% relative humidity, 12∶12 light:dark) and allowed free access to a solution of 10% sucrose. […] For each treatment, 3–7 replicates of 10 mosquitoes each were performed.
Prism (GraphPad Software) was used to generate a dose-response curve for the toxicity of VU625; the doses (x-axis) were first log transformed and then the mortality data was normalized using Prism, where the smallest value and largest values in a data set equal ‘0%’ and ‘100%’, respectively. The data were then fitted using a ‘biphasic’ algorithm (<100 constraint) to calculate potencies (ED25 and ED75 values). To compare 1) the toxic effects among the vehicle, probenecid, VU625, and VU625 + probenecid treatments, and 2) the excretory capacity among the vehicle, probenecid, VU625, and VU625 + probenecid treatments, one-way ANOVAs were performed with Newman-Keuls posttests.

[2] = co-injected with probenecid 3.4 nmol per mosquito, mortality at 24 h post-injection, biphasic fit

CCC(=O)N1c2ccc(S(=O)(=O)Nc3cccc(OC)c3)cc2CC1C (stereo not shown) [VU625, N-(3-methoxyphenyl)-2-methyl-1-propionylindoline-5-sulfonamide]
IC50 (Kir4.1): > 30 µM | IC50 (Kir7.1(M125R)): > 30 µM | effect on mosquito behavior or survival ([1]; 690 pmol per mosquito, hemolymph injection, alone, 24 h): no significant effects on mosquito behavior or survival within 24 h | toxicity on co-injection with probenecid ([1]; VU625 690 pmol + probenecid 3.4 nmol per mosquito, 24 h, vs VU625 or probenecid alone): significantly increases the toxicity of VU625 within 24 h | ED25 (mortality) [1, 2]: 9.96 pmol | ED75 (mortality) [1, 2]: 502 pmol | efficacy of VU625 with PBO ([1]; preliminary experiments with PBO): did not improve the efficacy
